Assay results: patent US12209087B2, “AKT1 modulators” (Alterome Therapeutics, Inc., priority 2022, dated 2025)

Molecular target: T1, full length AKT E17K (Homo sapiens, UniProt P31749, E17K)
T1 construct: host or cells: HEK-293 (ATCC CRL-1573)
Assay: NanoBRET Target Engagement (TE) Assay
Assay type: cell-based
Settings: competitive displacement of tracer in cells, read-out: AKT1 E17K IC50
In short: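 Compound and tracer incubated 2 h before luminescence at donor 450 nm and acceptor 600 nm, with extracellular signal inhibited. EC50 by sigmoidal variable-slope regression.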

T1 sequence (P31749 whole entry E17K): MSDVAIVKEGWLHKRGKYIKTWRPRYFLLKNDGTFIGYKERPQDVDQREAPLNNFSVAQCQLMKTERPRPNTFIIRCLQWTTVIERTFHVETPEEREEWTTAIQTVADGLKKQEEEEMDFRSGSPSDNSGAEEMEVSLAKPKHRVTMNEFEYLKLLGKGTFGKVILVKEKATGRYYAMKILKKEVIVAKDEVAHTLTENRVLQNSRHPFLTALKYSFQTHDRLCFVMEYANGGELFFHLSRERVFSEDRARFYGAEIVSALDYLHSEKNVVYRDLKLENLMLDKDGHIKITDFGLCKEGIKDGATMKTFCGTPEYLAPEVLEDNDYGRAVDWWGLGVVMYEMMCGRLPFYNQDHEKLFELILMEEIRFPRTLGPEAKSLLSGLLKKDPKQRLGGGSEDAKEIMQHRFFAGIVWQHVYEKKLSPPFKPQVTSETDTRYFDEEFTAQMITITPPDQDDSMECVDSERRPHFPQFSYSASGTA

SMILES | IC50 [nM]
N#Cc1nccc(NC2CCN(Cc3ccc(-n4c(-c5cccnc5N)nc5ccc(C(=O)O)nc54)cc3)CC2)n1 [Example 415, 2-(2-Aminopyridin-3-yl)-3-(4-((4-((2-cyanopyrimidin-4-yl)amino)piperidin-1-yl)methyl)phenyl)-3H-imidazo[4,5-b]pyridine-5-carboxylic acid] | 600 to 10000
N#Cc1ccc(-c2ccc3nc(-c4cccnc4N)n(-c4ccc(CN5CCC(Nc6ccnc(C#N)n6)CC5)cc4)c3n2)nc1 [Example 418, 4-((1-(4-(2-(2-Aminopyridin-3-yl)-5-(5-cyanopyridin-2-yl)-3H-imidazo[4,5-b]pyridin-3-yl)benzyl)piperidin-4-yl)amino)pyrimidine-2-carbonitrile] | 15 to 60
N#Cc1nccc(NC2CCN(Cc3ccc(-n4c(-c5cccnc5N)nc5ccc(OC(F)(F)F)nc54)cc3)CC2)n1 [Example 423, 4-((1-(4-(2-(2-Aminopyridin-3-yl)-5-(trifluoromethoxy)-3H-imidazo[4,5-b]pyridin-3-yl)benzyl)piperidin-4-yl)amino)pyrimidine-2-carbonitrile] | 60 to 600
N#Cc1nccc(N2CCN(Cc3ccc(-n4c(-c5cccnc5N)nc5ccc(-c6cccnc6C#N)nc54)cc3)CC2)n1 [Example 424, 4-(4-(4-(2-(2-Aminopyridin-3-yl)-5-(2-cyanopyridin-3-yl)-3H-imidazo[4,5-b]pyridin-3-yl)benzyl)piperazin-1-yl)pyrimidine-2-carbonitrile] | 15 to 60
N#Cc1cccc(-c2ccc3nc(-c4cccnc4N)n(-c4ccc(CN5CCC(Nc6ccnc(C#N)n6)CC5)cc4)c3n2)n1 [Example 428, 4-((1-(4-(2-(2-Aminopyridin-3-yl)-5-(6-cyanopyridin-2-yl)-3H-imidazo[4,5-b]pyridin-3-yl)benzyl)piperidin-4-yl)amino)pyrimidine-2-carbonitrile] | 15 to 60
N#Cc1nccc(NC2CCN(Cc3ccc(-n4c(-c5cccnc5N)nc5ccc(-c6cccnc6)nc54)cc3)CC2)n1 [Example 431, 4-((1-(4-(2-(2-Aminopyridin-3-yl)-5-(pyridin-3-yl)-3H-imidazo[4,5-b]pyridin-3-yl)benzyl)piperidin-4-yl)amino)pyrimidine-2-carbonitrile] | < 15
N#Cc1nccc(N2CCN(Cc3ccc(-n4c(-c5cccnc5N)nc5ccc(-c6cccnc6)nc54)cc3)CC2)n1 [Example 432] | < 15
N#Cc1nccc(NC2CCN(Cc3ccc(-n4c(-c5cccnc5N)nc5ccc(-c6ccncc6)nc54)cc3)CC2)n1 [Example 433, 4-((1-(4-(2-(2-Aminopyridin-3-yl)-5-(pyridin-4-yl)-3H-imidazo[4,5-b]pyridin-3-yl)benzyl)piperidin-4-yl)amino)pyrimidine-2-carbonitrile] | < 15
N#Cc1ncnc(NC2CC3(CCN(Cc4ccc(-n5c(-c6cccnc6N)nc6ccc(N7CCOCC7)nc65)cc4)CC3)C2)n1 [Example 434, 4-((7-(4-(2-(2-Aminopyridin-3-yl)-5-morpholino-3H-imidazo[4,5-b]pyridin-3-yl)benzyl)-7-azaspiro[3.5]nonan-2-yl)amino)-1,3,5-triazine-2-carbonitrile] | 15 to 60
CSc1ccc2nc(-c3cccnc3N)n(-c3ccc(CN4CCC(Nc5ccnc(C#N)n5)CC4)cc3)c2n1 [Example 435, 4-((1-(4-(2-(2-Aminopyridin-3-yl)-5-(methylthio)-3H-imidazo[4,5-b]pyridin-3-yl)benzyl)piperidin-4-yl)amino)pyrimidine-2-carbonitrile] | < 15
CS(=O)(=O)c1ccc2nc(-c3cccnc3N)n(-c3ccc(CN4CCC(Nc5ccnc(C#N)n5)CC4)cc3)c2n1 [Example 436, 4-((1-(4-(2-(2-Aminopyridin-3-yl)-5-(methylsulfonyl)-3H-imidazo[4,5-b]pyridin-3-yl)benzyl)piperidin-4-yl)amino)pyrimidine-2-carbonitrile] | 60 to 600
COc1ccnc(-c2ccc3nc(-c4cccnc4N)n(-c4ccc(CN5CCC(Nc6ccnc(C#N)n6)CC5)cc4)c3n2)c1 [Example 437, 4-((1-(4-(2-(2-Aminopyridin-3-yl)-5-(4-methoxypyridin-2-yl)-3H-imidazo[4,5-b]pyridin-3-yl)benzyl)piperidin-4-yl)amino)pyrimidine-2-carbonitrile] | < 15
Cn1cc(-c2ccc3nc(-c4cccnc4N)n(-c4ccc(CN5CCC(Nc6ccnc(C#N)n6)CC5)cc4)c3n2)nn1 [Example 438, 4-((1-(4-(2-(2-Aminopyridin-3-yl)-5-(1-methyl-1H-1,2,3-triazol-4-yl)-3H-imidazo[4,5-b]pyridin-3-yl)benzyl)piperidin-4-yl)amino)pyrimidine-2-carbonitrile] | < 15
COc1cc(-c2ccc3nc(-c4cccnc4N)n(-c4ccc(CN5CCC(Nc6ccnc(C#N)n6)CC5)cc4)c3n2)ccc1F [Example 439, 4-((1-(4-(2-(2-Aminopyridin-3-yl)-5-(4-fluoro-3-methoxyphenyl)-3H-imidazo[4,5-h]pyridin-3-yl)benzyl)piperidin-4-yl)amino)pyrimidine-2-carbonitrile] | < 15
CC(=O)Nc1cccc(-c2ccc3nc(-c4cccnc4N)n(-c4ccc(CN5CCC(Nc6ccnc(C#N)n6)CC5)cc4)c3n2)c1 [Example 440, N-(3-(2-(2-Aminopyridin-3-yl)-3-(4-((4-((2-cyanopyrimidin-4-yl)amino)piperidin-1-yl)methyl)phenyl)-3H-imidazo[4,5-b]pyridin-5-yl)phenyl)acetamide] | < 15
[2H]C([2H])([2H])N(c1ccnc(C#N)n1)C1CCN(Cc2ccc(-n3c(-c4cccnc4N)nc4ccc(-c5ccc(F)cc5)nc43)cc2)CC1 [Example 441, 4-((1-(4-(2-(2-Aminopyridin-3-yl)-5-(4-fluorophenyl)-3H-imidazo[4,5-b]pyridin-3-yl)benzyl)piperidin-4-yl)(methyl-d3)amino)pyrimidine-2-carbonitrile] | < 15

Further lines, results first:

IC50 [nM] | SMILES
< 15 | N#Cc1nccc(NC2CCN(Cc3ccc(-n4c(-c5cccnc5N)nc5ccc(OCF)nc54)cc3)CC2)n1 [Example 416, 4-((1-(4-(2-(2-Aminopyridin-3-yl)-5-(fluoromethoxy)-3H-imidazo[4,5-b]pyridin-3-yl)benzyl)piperidin-4-yl)amino)pyrimidine-2-carbonitrile]
< 15 | N#Cc1nccc(NC2CCN(Cc3ccc(-n4c(-c5cccnc5N)nc5ccc(C6CCOC6)nc54)cc3)CC2)n1 (stereo not drawn) [Example 417, 4-((1-(4-(2-(2-Aminopyridin-3-yl)-5-(tetrahydrofuran-3-yl)-3H-imidazo[4,5-b]pyridin-3-yl)benzyl)piperidin-4-yl)amino)pyrimidine-2-carbonitrile]
< 15 | N#Cc1ccc(-c2ccc3nc(-c4cccnc4N)n(-c4ccc(CN5CCC(Nc6ccnc(C#N)n6)CC5)cc4)c3n2)cn1 [Example 419, 4-((1-(4-(2-(2-Aminopyridin-3-yl)-5-(6-cyanopyridin-3-yl)-3H-imidazo[4,5-b]pyridin-3-yl)benzyl)piperidin-4-yl)amino)pyrimidine-2-carbonitrile]
< 15 | N#Cc1nccc(NC2CCN(Cc3ccc(-n4c(-c5cccnc5N)nc5ccc(C6COC6)nc54)cc3)CC2)n1 [Example 420, 4-((1-(4-(2-(2-Aminopyridin-3-yl)-5-(oxetan-3-yl)-3H-imidazo[4,5-h]pyridin-3-yl)benzyl)piperidin-4-yl)amino)pyrimidine-2-carbonitrile]
< 15 | COc1ccc(-c2ccc3nc(-c4cccnc4N)n(-c4ccc(CN5CCC(Nc6ccnc(C#N)n6)CC5)cc4)c3n2)cc1 [Example 421, 4-((1-(4-(2-(2-Aminopyridin-3-yl)-5-(4-methoxyphenyl)-3H-imidazo[4,5-b]pyridin-3-yl)benzyl)piperidin-4-yl)amino)pyrimidine-2-carbonitrile]
< 15 | COc1ccccc1-c1ccc2nc(-c3cccnc3N)n(-c3ccc(CN4CCC(Nc5ccnc(C#N)n5)CC4)cc3)c2n1 [Example 422, 4-((1-(4-(2-(2-Aminopyridin-3-yl)-5-(2-methoxyphenyl)-3H-imidazo[4,5-b]pyridin-3-yl)benzyl)piperidin-4-yl)amino)pyrimidine-2-carbonitrile]
< 15 | CC(C)Oc1ccc2nc(-c3cccnc3N)n(-c3ccc(CN4CCC(Nc5ccnc(C#N)n5)CC4)cc3)c2n1 [Example 425, 4-((1-(4-(2-(2-Aminopyridin-3-yl)-5-isopropoxy-3H-imidazo[4,5-b]pyridin-3-yl)benzyl)piperidin-4-yl)amino)pyrimidine-2-carbonitrile]
< 15 | N#Cc1nccc(NN2CCN(Cc3ccc(-n4c(-c5cccnc5N)nc5ccc(-c6ccccc6)nc54)cc3)CC2)n1 [Example 426, 4-((4-(4-(2-(2-Aminopyridin-3-yl)-5-phenyl-3H-imidazo[4,5-b]pyridin-3-yl)benzyl)piperazin-1-yl)amino)pyrimidine-2-carbonitrile]
< 15 | [2H]C([2H])([2H])Oc1ccc2nc(-c3cccnc3N)n(-c3ccc(CN4CCC(Nc5ccnc(C#N)n5)CC4)cc3)c2n1 [Example 427, 4-((1-(4-(2-(2-Aminopyridin-3-yl)-5-(methoxy-d3)-3H-imidazo[4,5-b]pyridin-3-yl)benzyl)piperidin-4-yl)amino)pyrimidine-2-carbonitrile]
< 15 | N#Cc1cc(-c2ccc3nc(-c4cccnc4N)n(-c4ccc(CN5CCC(Nc6ccnc(C#N)n6)CC5)cc4)c3n2)ccn1 [Example 429, 4-((1-(4-(2-(2-Aminopyridin-3-yl)-5-(2-cyanopyridin-4-yl)-3H-imidazo[4,5-b]pyridin-3-yl)benzyl)piperidin-4-yl)amino)pyrimidine-2-carbonitrile]
< 15 | N#Cc1cncc(-c2ccc3nc(-c4cccnc4N)n(-c4ccc(CN5CCC(Nc6ccnc(C#N)n6)CC5)cc4)c3n2)c1 [Example 430, 4-((1-(4-(2-(2-Aminopyridin-3-yl)-5-(5-cyanopyridin-3-yl)-3H-imidazo[4,5-b]pyridin-3-yl)benzyl)piperidin-4-yl)amino)pyrimidine-2-carbonitrile]
